From ChEMBL document CHEMBL1151443, “Activity of the novel macrolide BAL19403 against ribosomes from erythromycin-resistant Propionibacterium acnes” (Antimicrob Agents Chemother, 2007)
Converted amounts (≈) assume the structure as drawn.

How the values were obtained:
[1] = Inhibition of ribosomal activity in erythromycin-sensitive Escherichia coli BL21 S30 extracts assessed as inhibition of luciferase activity by transcriptional and translational assay; format: subcellular, Ribosome
[2] = target: Bacterial 70S ribosome; experiment: Inhibition of ribosomal activity in erythromycin-resistant Propionibacterium acnes P95 with G2057A mutation in domain V of 23S rRNA assessed as luciferase production by transcriptional and translational assay; format: subcellular, Cutibacterium acnes
[3] = target: Bacterial 70S ribosome; experiment: Inhibition of ribosomal activity in erythromycin-sensitive Escherichia coli BL21 assessed as luciferase production by transcriptional and translational assay; format: subcellular
[4] = target: Bacterial 70S ribosome; experiment: Inhibition of ribosomal activity in erythromycin-sensitive Propionibacterium acnes EG7NS assessed as luciferase production by transcriptional and translational assay; format: subcellular, Cutibacterium acnes
[5] = target: Bacterial 70S ribosome; experiment: Inhibition of ribosomal activity in erythromycin-resistant Propionibacterium acnes SW54EA with A2058G mutation in domain V of 23S rRNA assessed as luciferase production by transcriptional and translational assay; format: subcellular, Cutibacterium acnes
[6] = target: Bacterial 70S ribosome; experiment: Displacement of [14C]ERY from erythromycin-sensitive Escherichia coli BL21 ribosome; format: subcellular
[7] = target: Bacterial 70S ribosome (Bacteria) (UniProt P0A7V0+P60723+P0AG67+P0A7R5+P0A7R9+P0A7S3+P0A7S9+P0AG59+P0ADZ4+P0A7T3+P0AG63+P0A7T7+P0A7U3+P0A7U7+P68679+P0A7V3+P0A7V8+P0A7W1+P02358+P02359+P0A7W7+P0A7X3+P0A7J3+P0A7J7+P0AA10+P0ADY3+P02413+P0ADY7+P0AG44+P0C018+P0A7K6+P0A7L0+P0A7L3+P0AG48+P61175+P0ADZ0+P60624+P68919+P0A7L8+P0A7M2+P0A7M6+P60422+P0AG51+P0A7N1+P0A7M9+P0A7N4+P0A7N9+P0A7P5+P0A7Q1+Q2EEQ2+P0A7Q6+P60438+P62399+P0AG55+P0A7K2); experiment: (§1) Inhibition of ribosomal activity in erythromycin-resistant Propionibacterium acnes GE4E carrying Erm(X) gene assessed as luciferase production by transcriptional and translational assay; format: subcellular; conditions: Cutibacterium acnes, concentration not given here
[8] = target: Bacterial 70S ribosome; experiment: as §1; format: subcellular, Cutibacterium acnes
[9] = test system: Cutibacterium acnes; experiment: Antibacterial activity against erythromycin-resistant Propionibacterium acnes GE4E carrying Erm(X) gene; format: functional
[10] = test system: Cutibacterium acnes; experiment: Antibacterial activity against erythromycin-resistant Propionibacterium acnes with G2057A mutation in domain V of 23S rRNA; format: functional
[11] = test system: Cutibacterium acnes; experiment: Antibacterial activity against erythromycin-resistant Propionibacterium acnes with A2058G mutation in domain V of 23S rRNA; format: functional
[12] = test system: Cutibacterium acnes; experiment: Antibacterial activity against erythromycin-sensitive Propionibacterium acnes EG7NS; format: functional
[13] = test system: Cutibacterium acnes; experiment: Antibacterial activity against erythromycin-resistant Propionibacterium acnes P95 with 23S rRNA G2057A mutant; format: functional
[14] = test system: Cutibacterium acnes; experiment: Antibacterial activity against erythromycin-resistant Propionibacterium acnes with A2059 mutation in domain V of 23S rRNA; format: functional
[15] = test system: Escherichia coli; experiment: Antibacterial activity against Escherichia coli BL21; format: functional
[16] = target: Bacterial 70S ribosome; experiment: Displacement of [14C]ERY from erythromycin-sensitive Propionibacterium acnes EG7NS ribosome; format: subcellular, Cutibacterium acnes
[17] = target: Bacterial 70S ribosome; experiment: Displacement of [14C]ERY from ribosome in erythromycin-resistant Propionibacterium acnes P95 with G2057A mutation in domain V of 23S rRNA; format: subcellular, Cutibacterium acnes
[18] = test system: Cutibacterium acnes; experiment: Antibacterial activity against erythromycin-resistant Propionibacterium acnes SW54EA with 23S rRNA A2058G mutant; format: functional

CC[C@H]1OC(=O)[C@H](C)[C@@H](O[C@H]2C[C@@](C)(OC)[C@@H](O)[C@H](C)O2)[C@H](C)[C@@H](O[C@@H]2O[C@H](C)C[C@H](N(C)C)[C@H]2O)[C@](C)(OC)C[C@@H](C)C(=O)[C@H](C)[C@H]2[C@H](SCCn3cnc4cccnc43)C(=O)O[C@@]21C
IC50 [1]: 850 nM | IC50 [2]: 120 nM | IC50 [3]: 420 nM | IC50 [4]: 110 nM | IC50 [5]: 0.26 µM | Kd [6]: 26 nM | inhibition [7]: 48% | IC50 [8]: 190 nM

CC[C@H]1OC(=O)[C@H](C)[C@@H](O[C@H]2C[C@@](C)(OC)[C@@H](O)[C@H](C)O2)[C@H](C)[C@@H](O[C@@H]2O[C@H](C)C[C@H](N(C)C)[C@H]2O)[C@](C)(O)C[C@@H](C)C(=O)[C@H](C)[C@@H](O)[C@]1(C)O [ERYTHROMYCIN]
MIC [9]: > 512 µg/mL | IC50 [1]: 2130 nM | MIC [10]: 1 µg/mL (≈ 1.36 µM) | MIC [11]: > 128 µg/mL | MIC [12]: ≤ 0.06 µg/mL | IC50 [2]: 2200 nM | MIC [13]: 4 µg/mL (≈ 5.45 µM) | MIC [14]: > 128 µg/mL | IC50 [3]: 760 nM | IC50 [4]: 170 nM | IC50 [5]: 87 µM | MIC [15]: 128 µg/mL (≈ 174 µM) | Kd [6]: 11 nM | inhibition [7]: 52% | IC50 [8]: 1900 nM | Kd [16]: 29 nM | Kd [17]: > 2100 nM | MIC [18]: > 512 µg/mL
